# Measured values from patent US20250066386A1, “INHIBITORS OF KRAS” (BIOMEA FUSION, INC., priority 2022, published 2025).
# Read-outs that look alike come from different tables or passages of the source.
# Key:
# [1] = from CCn1c(-c2cccnc2[C@H](C)OC)c(CC(C)(C)CO)c2cc(-c3cccc(C[C@H](NC(=O)OC(C)(C)C)C(=O)N4CC[C@H](C(=O)O)C4)c3)ccc21; ester bond; 18-membered ring; EDC/HOBT/DIPEA; DCM; 47.2 mM; 25.0 °C; 16.0 h; 2 steps
# [2] = system: human KRAS G12C mutated cell line MIA PaCa-2; experiment: KRas G12C in vitro inhibitory activity: cell proliferation, CellTiter-Glo; assay type: cell-based; details: Homo sapiens
# Source text: The present example evaluates the ability of compounds provided herein to inhibit proliferation of KRAS mutant cells.
# The inhibitory effect on cell proliferation was investigated in the human KRAS G12C mutated cell line MIA PaCa-2 (Yunis et al., 1977, Int. J. Cancer 19(1):128-135; ATCC catalog no. CRL-1420). Cells were maintained in RPMI-1640 medium (ThermoFisher catalog no. 61870036) supplemented with 10% of Heat Inactivated FBS (ThermoFisher catalog no. A31605) and 1% Pen-Strep (ThermoFisher catalog no. 10378016) and cultured at 37° C. in a humidified incubator with 5% CO2. Cells were grown by adhering to culture flasks, and maintained at 70%-80% confluency.
# ATP is present in all metabolically active cells and is considered as a marker for viable cells. The number of metabolically active live cells in culture was determined using the CellTiter-Glo kit (Promega catalog no. G7572), an ATP monitoring system based on the production of luminescence by the reaction of ATP with added UltraGlo® recombinant luciferase (Kawano et al., 2016, PLOS One, 8; 11(7):e0158888), according to the supplier's experimental recommendations. The cell proliferation assay was based on a 96 well plate format.
# Test compounds were dissolved at 10 mM in DMSO (Sigma catalog no. D8418; purity >99.9%) and stored at −20° C. Eight concentrations of test compound were assessed in duplicate in an individual test occasion in parallel in the selected cell lines. MRTX-849 and AMG-510 were used as reference compounds and tested in duplicate at eight concentrations. 100% of proliferation is represented by the untreated cells (0.2% DMSO).
# On the day of the experiment (TO), cells were detached with TrypLE (ThermoFisher catalog no. 12604054), quantified using the cell viability analyser NucleoCounter (Chemometec NC-200) and resuspended in fresh medium at a cell density of about 5000 cells per 200 μL medium. 200 μL of cell suspension were added to each well of a 96 well plate.
# Two hours after seeding cells, compounds were added at desired concentrations using a D300e compound dispenser (Life Sciences Tecan D300) with shaking after each compound addition. Assay plates were incubated at 37° C. in a humidified incubator with 5% CO2.
# (§1) To measure 3 day inhibition of cell proliferation on day 3 (T3), assay plates were equilibrated to room temperature for approximately 15 min, and the Promega CellTiterGlo® reagent was added at 40 μL/well. Contents were mixed for 5 min on an orbital shaker to induce cell lysis, and then incubated at room temperature for an additional 10 min in the dark to stabilize the luminescent signal. Luminescence was read using a GloMax GM300 plate reader (Promega) using the luminescence for 96 well plate standard protocol.
# as §1, with “measure 7” for “measure 3”, “(T3), 150 μL of growth media was removed from each well of the assay plates and replaced with 150 uL fresh growth media, and fresh compounds added using a D300e compound dispenser (Life Sciences Tecan D300) at desired concentrations with shaking between each compound addition. Assay plates were incubated at 37° C. in a humidified incubator with 5% CO2. On day 7 (T7)” for “(T3),”
# Data was expressed as % of inhibition compared to the 0.2% DMSO negative no drug control, and is calculated as follows: % inhibition=100−[(RLU sample)×100/(RLU average controls*)], where * indicates the average for 0.2% DMSO.
# Results were analyzed by GraphPad (Prism) and IC50 values were calculated by non-linear regression using four parameter-logistic equation. […]
# [3] = MIA PaCa-2, 72 h, 3 day inhibition of cell proliferation, CellTiter-Glo luminescence, read-out: MIA PaCa-2 Day 3 IC50
# [4] = MIA PaCa-2, 7 day inhibition of cell proliferation, medium and compound renewed on day 3, CellTiter-Glo luminescence, read-out: MIA PaCa-2 Day 7 IC50
SMILES,"IC50 [2, 3] [nM]","IC50 [2, 4] [nM]","ring closure, isolated yield [1] [%]"
CCn1c(-c2cccnc2[C@H](C)OC)c2c3cc(ccc31)-c1cccc(c1)C[C@H](NC(=O)OC(C)(C)C)C(=O)N1CC[C@@H](C1)C(=O)OCC(C)(C)C2,–,–,60
"CCn1c(-c2cccnc2[C@H](C)OC)c2c3cc(ccc31)-c1csc(n1)C[C@H](NC(=O)[C@H](C(C)C)N(C)C(=O)N1[C@H](C)CN(CC#CC(=O)N(C)C)C[C@H]1C)C(=O)N1CCC[C@H](N1)C(=O)OCC(C)(C)C2 [Compound 105, (2R,6R)-4-(4-(dimethylamino)-4-oxobut-2-yn-1-yl)-N-((2S)-1-(((6^3S,4S,Z)-1^1-ethyl-1^2-(2-((S)-1-methoxyethyl)pyridin-3-yl)-10,10-dimethyl-5,7-dioxo-6^1,6^2,6^3,6^4,6^5,6^6-hexahydro-1^1H-8-oxa-2(4,2)-thiazola-1(5,3)-indola-6(1,3)-pyridazinacycloundecaphane-4-yl)amino)-3-methyl-1-oxobutan-2-yl)-N,2,6-trimethylpiperazine-1-carboxamide]",10 to 100,10 to 100,–
"CCn1c(-c2cccnc2[C@H](C)OC)c2c3cc(ccc31)-c1cccc(c1)C[C@H](NC(=O)[C@H](C(C)C)N(C)C(=O)[C@H]1CCN(C(=O)C#CCN(C)C)C1)C(=O)N1CC[C@H](C1)C(=O)OCC(C)(C)C2 (atropisomer, axis not shown) [Compound 103, (3S)-1-(4-(dimethylamino)but-2-ynoyl)-N-((2S)-1-(((6^3R,4S)-1^1-ethyl-1^2-(2-((S)-1-methoxyethyl)pyridin-3-yl)-10,10-dimethyl-5,7-dioxo-1^1H-8-oxa-1(5,3)-indola-6(1,3)-pyrrolidina-2(1,3)-benzenacycloundecaphane-4-yl)amino)-3-methyl-1-oxobutan-2-yl)-N-methylpyrrolidine-3-carboxamide]",> 100,–,–
"CCn1c(-c2cccnc2[C@H](C)OC)c2c3cc(ccc31)-c1cccc(c1)C[C@H](NC(=O)[C@H](C(C)C)N(C)C(=O)[C@H]1CCN(C(=O)C#CCN3CCOCC3)C1)C(=O)N1CCC[C@H](CC(=O)OC(C)(C)C2)C1 [Compound 108, (3S)—N-((2S)-1-(((6^3R,4S)-1^1-ethyl-1^2-(2-((S)-1-methoxyethyl)pyridin-3-yl)-10,10-dimethyl-5,8-dioxo-1^1H-9-oxa-1(5,3)-indola-6(1,3)-piperidina-2(1,3)-benzenacycloundecaphane-4-yl)amino)-3-methyl-1-oxobutan-2-yl)-N-methyl-1-(4-morpholinobut-2-ynoyl)pyrrolidine-3-carboxamide]",> 100,–,–
"CCn1c(-c2cccnc2[C@H](C)OC)c2c3cc(ccc31)-c1cccc(c1)C[C@H](NC(=O)[C@H](C(C)C)N(C)C(=O)C1CCN(CC#CC(=O)N(C)C)CC1)C(=O)N1CCC[C@H](N1)C(=O)OCC(C)(C)C2 (atropisomer, axis not shown) [Compound 109, 1-(4-(dimethylamino)-4-oxobut-2-yn-1-yl)-N-((2S)-1-(((6^3S,4S)-1^1-ethyl-1^2-(2-((S)-1-methoxyethyl)pyridin-3-yl)-10,10-dimethyl-5,7-dioxo-6^1,6^2,6^3,6^4,6^5,6^6-hexahydro-1^1H-8-oxa-1(5,3)-indola-6(1,3)-pyridazina-2(1,3)-benzenacycloundecaphane-4-yl)amino)-3-methyl-1-oxobutan-2-yl)-N-methylpiperidine-4-carboxamide]",1 to 10,–,–

# Continued, in another order:
"IC50 [2, 3] [nM]","IC50 [2, 4] [nM]",SMILES,"ring closure, isolated yield [1] [%]"
> 100,1 to 10,"CCn1c(-c2cccnc2[C@H](C)OC)c2c3cc(ccc31)-c1csc(n1)C[C@H](NC(=O)[C@H](C(C)C)N(C)C(=O)[C@H]1CCN(CC#CC(=O)N3CC(F)C3)C1)C(=O)N1CCC[C@H](N1)C(=O)OCC(C)(C)C2 (atropisomer, axis not shown) [Compound 118, (3S)—N-((2S)-1-(((6^3S,4S,Z)-1^1-ethyl-1^2-(2-((S)-1-methoxyethyl)pyridin-3-yl)-10,10-dimethyl-5,7-dioxo-6^1,6^2,6^3,6^4,6^5,6^6-hexahydro-1^1H-8-oxa-2(4,2)-thiazola-1(5,3)-indola-6(1,3)-pyridazinacycloundecaphane-4-yl)amino)-3-methyl-1-oxobutan-2-yl)-1-(4-(3-fluoroazetidin-1-yl)-4-oxobut-2-yn-1-yl)-N-methylpyrrolidine-3-carboxamide]",–
> 100,1 to 10,"CCn1c(-c2cccnc2[C@H](C)OC)c2c3cc(ccc31)-c1csc(n1)C[C@H](NC(=O)[C@H](C(C)C)N(C)C(=O)[C@H]1CCN(CC#CC(=O)N3CC(F)(F)C3)C1)C(=O)N1CCC[C@H](N1)C(=O)OCC(C)(C)C2 (atropisomer, axis not shown) [Compound 117, (3S)-1-(4-(3,3-difluoroazetidin-1-yl)-4-oxobut-2-yn-1-yl)-N-((2S)-1-(((6^3S,4S,Z)-1^1-ethyl-1^2-(2-((S)-1-methoxyethyl)pyridin-3-yl)-10,10-dimethyl-5,7-dioxo-6^1,6^2,6^3,6^4,6^5,6^6-hexahydro-1^1H-8-oxa-2(4,2)-thiazola-1(5,3)-indola-6(1,3)-pyridazinacycloundecaphane-4-yl)amino)-3-methyl-1-oxobutan-2-yl)-N-methylpyrrolidine-3-carboxamide]",–
10 to 100,–,"CCn1c(-c2cccnc2[C@H](C)OC)c2c3cc(ccc31)-c1csc(n1)C[C@H](NC(=O)[C@H](C(C)C)N(C)C(=O)[C@H]1CCN(C/C=C/C(=O)N(C)C)C1)C(=O)N1CCC[C@H](N1)C(=O)OCC(C)(C)C2 (atropisomer, axis not shown) [Compound 111, (3S)-1-((E)-4-(dimethylamino)-4-oxobut-2-en-1-yl)-N-((2S)-1-(((6^3S,4S,Z)-1^1-ethyl-1^2-(2-((S)-1-methoxyethyl)pyridin-3-yl)-10,10-dimethyl-5,7-dioxo-6^1,6^2,6^3,6^4,6^5,6^6-hexahydro-1^1H-8-oxa-2(4,2)-thiazola-1(5,3)-indola-6(1,3)-pyridazinacycloundecaphane-4-yl)amino)-3-methyl-1-oxobutan-2-yl)-N-methylpyrrolidine-3-carboxamide]",–
< 1,–,"CCn1c(-c2cccnc2[C@H](C)OC)c2c3cc(ccc31)-c1cccc(c1)C[C@H](NC(=O)[C@H](C(C)C)N(C)C(=O)[C@H]1CCN(C/C=C/C(=O)N3CC(F)(F)C3)C1)C(=O)N1CCC[C@H](N1)C(=O)OCC(C)(C)C2 (atropisomer, axis not shown) [Compound 115, (3S)-1-((E)-4-(3,3-difluoroazetidin-1-yl)-4-oxobut-2-en-1-yl)-N-((2S)-1-(((6^3S,4S)-1^1-ethyl-1^2-(2-((S)-1-methoxyethyl)pyridin-3-yl)-10,10-dimethyl-5,7-dioxo-6^1,6^2,6^3,6^4,6^5,6^6-hexahydro-1^1H-8-oxa-1(5,3)-indola-6(1,3)-pyridazina-2(1,3)-benzenacycloundecaphane-4-yl)amino)-3-methyl-1-oxobutan-2-yl)-N-methylpyrrolidine-3-carboxamide]",–
